Results on 13 compounds are retold here after patent US20250263440A1, “CD38-BINDING AGENTS AND USES THEREOF” (PeptiDream Inc., priority 2019, published 2025).

This experiment addresses His-tagged CD38 (Homo sapiens, UniProt P28907). In words: SPR assay (Biacore S200, Sensor Chip NTA, single-cycle kinetics) of SEQ ID NO.1 variants against His-tagged CD38. The format is binding. The following applies: for Kd: SPR Biacore S200, His-tagged CD38, calculated from ka and kd; for kon / koff: SPR Biacore S200, NTA chip, His-tagged CD38; for kon: read-out: Ka (association rate constant); for koff: read-out: Kd (dissociation rate constant). As to the method: SPR assay was performed using Biacore S200 (Cytiva: Former GE Healthcare).
After the equilibration of Series S Sensor Chip NTA (produced by Cytiva: Former GE Healthcare) with Running Buffer (10 mM HEPES pH7.4, 150 mM NaCl, 0.05% Tween 20), followed by injection of 350 mM EDTA at a flow rate of 10 L/min for 60 seconds and […] NiCl2 at a flow rate of 10 L/min for 60 seconds, then 3 mM EDTA at a flow rate of 10 L/min for 120 seconds, sequently, to wash the sensor chip.
EDC/NHS mixture was injected at a flow rate of […] for 7 minutes to thereby activate the functional groups on sensor chip. His-tagged CD38 in Running Buffer (10 mM HEPES pH7.4, 150 mM NaCl, 0.05% Tween 20) was injected immobilized to at a flow rate of […]. For 7 minutes to immobilize the CD38 on the substrate surfaces of the sensor chip. Then Ethanolamine was injected at a flow rate of […] for 7 minutes.
1.0 M Ethanolamine(aq.) was injected at a flow rate of 10 L/min for 420 seconds for capping. 10 mM peptides (which were synthesised described above) in DMSO were diluted to obtain 10 uM with Running Buffer, and prepared 100 nM, 50 nM, 25 nM, 10 nM, 5 nM of each peptide's solutions (Peptide Samples).
Using these Peptide Samples, kinetics of peptides against His-tagged CD38 was measured. The method adopted for sample measurement was a single-cycle kinetics method. The analysis was conducted using the evaluation software 1.1 provided with Biacore S200. A DMSO correction curve obtained by solvent correction measurements was applied for the analysis. Kinetics fitting was done on the difference data obtained by subtracting the baseline data from sample measurement data.
KD values were calculated based on the association rate constant (ka) and dissociation rate constant (kd).

Starred links: 1 amine or outer side, 2 acyl side, 3 side chain; linkers in the order of their positions; H or OH if unused. Positions of bridges follow the written chain, without caps; N, C: chain ends. Non-standard residues stand in square brackets, D forms with d. Residues, ends and D or L forms follow the SMILES beside them. *: point of attachment. Trp(6-aza) = N[C@@H](Cc1c[nH]c2cnccc12)C(=O)O; X2 = N=C(N)Nc1cccc(CC(N[*:1])C(=O)[*:2])c1; Bip = N[C@@H](Cc1ccc(-c2ccccc2)cc1)C(=O)O; Nle(6-Ph) = N[C@@H](CCCCc1ccccc1)C(=O)O; X3 = CCCCCCCCC[C@H](N[*:1])C(=O)[*:2]; X4 = CCCCCCC[C@H](N[*:1])C(=O)[*:2]; hhPhe = N[C@@H](CCCc1ccccc1)C(=O)O; Cit = NC(=O)NCCC[C@H](N)C(=O)O; Ahp(2) = CCCCC[C@H](N)C(=O)O; X1 = COCCOCCOCCOCCC(=O)*

As for `CCCCC[C@@H]1NC(=O)[C@H](Cc2ccc(-c3ccccc3)cc2)NC(=O)[C@H](CC(C)C)NC(=O)[C@H](C(C)C)NC(=O)[C@H](CCC(=O)O)NC(=O)[C@H](CC(=O)O)NC(=O)[C@H](Cc2c[nH]cn2)NC(=O)[C@H](Cc2ccc(O)cc2)NC(=O)[C@H](CCCCC)NC(=O)[C@H](CCCNC(=N)N)NC(=O)[C@H](CCCCNC(=O)CCOCCOCCOCCOC)NC(=O)CSC[C@@H](C(N)=O)NC(=O)[C@H](CC(=O)O)NC1=O` [compound 17] ({CH2CO}-K(X1)R[Ahp(2)]YHDEVL[Bip][Ahp(2)]DC-NH2; thioether N-13), the Kd is 4.37 nM, the kon amounted to 210000 M⁻¹ s⁻¹ and the koff was 0.00091 s⁻¹.
Turning to `CCCCC[C@@H]1NC(=O)[C@H](CCCCNC(=O)CCOCCOCCOCCOC)NC(=O)[C@H](C)NC(=O)CSC[C@@H](C(N)=O)NC(=O)[C@H](CC(=O)O)NC(=O)[C@H](CCCCC)NC(=O)[C@H](Cc2ccc(-c3ccccc3)cc2)NC(=O)[C@H](CC(C)C)NC(=O)[C@H](C(C)C)NC(=O)[C@H](CCC(=O)O)NC(=O)[C@H](CC(=O)O)NC(=O)[C@H](Cc2c[nH]cn2)NC(=O)[C@H](Cc2ccc(O)cc2)NC1=O` [compound 18] ({CH2CO}-AK(X1)[Ahp(2)]YHDEVL[Bip][Ahp(2)]DC-NH2; thioether N-13), the Kd is 27.7 nM, the kon is 220000 M⁻¹ s⁻¹ and the koff is 0.006 s⁻¹.
For `CCCCC[C@@H]1NC(=O)[C@H](Cc2ccc(-c3ccccc3)cc2)NC(=O)[C@H](CC(C)C)NC(=O)[C@H](C(C)C)NC(=O)[C@H](CCC(=O)O)NC(=O)[C@H](CC(=O)O)NC(=O)[C@H](Cc2c[nH]cn2)NC(=O)[C@H](Cc2ccc(O)cc2)NC(=O)[C@H](CCCCNC(=O)CCOCCOCCOCCOC)NC(=O)[C@H](CCCNC(=N)N)NC(=O)[C@H](C)NC(=O)CSC[C@@H](C(N)=O)NC(=O)[C@H](CC(=O)O)NC1=O` [compound 19] ({CH2CO}-ARK(X1)YHDEVL[Bip][Ahp(2)]DC-NH2; thioether N-13), the kon was found to be 160000 M⁻¹ s⁻¹ and the koff stood at 0.0012 s⁻¹.
Regarding `CCCCC[C@@H]1NC(=O)[C@H](Cc2ccc(-c3ccccc3)cc2)NC(=O)[C@H](CC(C)C)NC(=O)[C@H](C(C)C)NC(=O)[C@H](CCC(=O)O)NC(=O)[C@H](CC(=O)O)NC(=O)[C@H](Cc2c[nH]cn2)NC(=O)[C@H](Cc2ccc(O)cc2)NC(=O)[C@H](CCCCC)NC(=O)[C@H](CCCNC(=N)N)NC(=O)[C@@H](C)NC(=O)CSC[C@@H](C(N)=O)NC(=O)[C@H](CC(=O)O)NC1=O` [compound 20] ({CH2CO}-[dA]R[Ahp(2)]YHDEVL[Bip][Ahp(2)]DC-NH2; thioether N-13), the Kd was 10.6 nM, the kon came out at 730000 M⁻¹ s⁻¹ and the koff was determined as 0.0077 s⁻¹.
As to `CCCCC[C@@H]1NC(=O)[C@H](CCCNC(=N)N)NC(=O)[C@H](C)NC(=O)CSC[C@@H](C(N)=O)NC(=O)[C@H](CC(=O)O)NC(=O)[C@H](CCCCC)NC(=O)[C@H](Cc2ccc(-c3ccccc3)cc2)NC(=O)[C@H](CC(C)C)NC(=O)[C@H](C(C)C)NC(=O)[C@H](CCC(=O)O)NC(=O)[C@H](CC(=O)O)NC(=O)[C@H](Cc2c[nH]cn2)NC(=O)[C@H](C)NC1=O` [compound 21] ({CH2CO}-AR[Ahp(2)]AHDEVL[Bip][Ahp(2)]DC-NH2; thioether N-13 (inferred); N-terminus and C-terminus assumed), the kon stood at 310000 M⁻¹ s⁻¹ and the koff is 0.016 s⁻¹.
For `CCCCC[C@@H]1NC(=O)[C@H](CCCNC(=N)N)NC(=O)[C@H](C)NC(=O)CSC[C@@H](C(N)=O)NC(=O)[C@H](CC(=O)O)NC(=O)[C@H](CCCCC)NC(=O)[C@H](Cc2ccc(-c3ccccc3)cc2)NC(=O)[C@H](CC(C)C)NC(=O)[C@H](C(C)C)NC(=O)[C@H](CCC(=O)O)NC(=O)[C@H](CC(=O)O)NC(=O)[C@H](Cc2c[nH]c3cnccc23)NC(=O)[C@H](Cc2ccc(O)cc2)NC1=O` [compound 22] ({CH2CO}-AR[Ahp(2)]Y[Trp(6-aza)]DEVL[Bip][Ahp(2)]DC-NH2; thioether N-13), the Kd is 10.9 nM, the kon worked out at 790000 M⁻¹ s⁻¹ and the koff came out at 0.0087 s⁻¹.
For `CCCCCCC[C@@H]1NC(=O)[C@H](Cc2ccc(-c3ccccc3)cc2)NC(=O)[C@H](CC(C)C)NC(=O)[C@H](C(C)C)NC(=O)[C@H](CCC(=O)O)NC(=O)[C@H](CC(=O)O)NC(=O)[C@H](Cc2c[nH]cn2)NC(=O)[C@H](Cc2ccc(O)cc2)NC(=O)[C@H](CCCCC)NC(=O)[C@H](CCCNC(=N)N)NC(=O)[C@H](C)NC(=O)CSC[C@@H](C(N)=O)NC(=O)[C@H](CC(=O)O)NC1=O` [compound 23] ({CH2CO}-AR[Ahp(2)]YHDEVL[Bip][X4]DC-NH2; thioether N-13), the kon came to 820000 M⁻¹ s⁻¹ and the koff is 0.0027 s⁻¹.
For `CCCCCCCCC[C@@H]1NC(=O)[C@H](Cc2ccc(-c3ccccc3)cc2)NC(=O)[C@H](CC(C)C)NC(=O)[C@H](C(C)C)NC(=O)[C@H](CCC(=O)O)NC(=O)[C@H](CC(=O)O)NC(=O)[C@H](Cc2c[nH]cn2)NC(=O)[C@H](Cc2ccc(O)cc2)NC(=O)[C@H](CCCCC)NC(=O)[C@H](CCCNC(=N)N)NC(=O)[C@H](C)NC(=O)CSC[C@@H](C(N)=O)NC(=O)[C@H](CC(=O)O)NC1=O` [compound 24] ({CH2CO}-AR[Ahp(2)]YHDEVL[Bip][X3]DC-NH2; thioether N-13 (inferred); N-terminus and C-terminus assumed) the same measures were 370000 M⁻¹ s⁻¹ and 0.0013 s⁻¹.
`CCCCC[C@@H]1NC(=O)[C@H](CCCNC(=N)N)NC(=O)[C@H](C)NC(=O)CSC[C@@H](C(N)=O)NC(=O)[C@H](CC(=O)O)NC(=O)[C@H](CCCCc2ccccc2)NC(=O)[C@H](Cc2ccc(-c3ccccc3)cc2)NC(=O)[C@H](CC(C)C)NC(=O)[C@H](C(C)C)NC(=O)[C@H](CCC(=O)O)NC(=O)[C@H](CC(=O)O)NC(=O)[C@H](Cc2c[nH]cn2)NC(=O)[C@H](Cc2ccc(O)cc2)NC1=O` [compound 25] ({CH2CO}-AR[Ahp(2)]YHDEVL[Bip][Nle(6-Ph)]DC-NH2; thioether N-13): the kon is 630000 M⁻¹ s⁻¹ and the koff is 0.00087 s⁻¹.
For `CCCCC[C@@H]1NC(=O)[C@H](CCCNC(=N)N)NC(=O)[C@H](C)NC(=O)CSC[C@@H](C(N)=O)NC(=O)[C@H](CC(=O)O)NC(=O)[C@H](CCCc2ccccc2)NC(=O)[C@H](Cc2ccc(-c3ccccc3)cc2)NC(=O)[C@H](CC(C)C)NC(=O)[C@H](C(C)C)NC(=O)[C@H](CCC(=O)O)NC(=O)[C@H](CC(=O)O)NC(=O)[C@H](Cc2c[nH]cn2)NC(=O)[C@H](Cc2ccc(O)cc2)NC1=O` [compound 26] ({CH2CO}-AR[Ahp(2)]YHDEVL[Bip][hhPhe]DC-NH2; thioether N-13) the same measures were 1.9e+06 M⁻¹ s⁻¹ and 0.05 s⁻¹.
Regarding `CCCCC[C@@H]1NC(=O)[C@H](Cc2ccc(-c3ccccc3)cc2)NC(=O)[C@H](CC(C)C)NC(=O)[C@H](C(C)C)NC(=O)[C@H](CCC(=O)O)NC(=O)[C@H](CC(=O)O)NC(=O)[C@H](Cc2c[nH]cn2)NC(=O)[C@H](Cc2ccc(O)cc2)NC(=O)[C@H](CCCCC)NC(=O)[C@H](CCCNC(=N)N)NC(=O)[C@H](C)NC(=O)CSC[C@@H](C(N)=O)NC(=O)[C@H](C)NC1=O` [compound 27] ({CH2CO}-AR[Ahp(2)]YHDEVL[Bip][Ahp(2)]AC-NH2; thioether N-13 (inferred); N-terminus and C-terminus assumed), the kon turned out to be 560000 M⁻¹ s⁻¹ and the koff worked out at 0.0028 s⁻¹.
With `CCCCC[C@@H]1NC(=O)[C@H](CCCNC(N)=O)NC(=O)[C@H](C)NC(=O)CSC[C@@H](C(N)=O)NC(=O)[C@H](CC(=O)O)NC(=O)[C@H](CCCCc2ccccc2)NC(=O)[C@H](Cc2ccc(-c3ccccc3)cc2)NC(=O)[C@H](CC(C)C)NC(=O)[C@H](C(C)C)NC(=O)[C@H](CCC(=O)O)NC(=O)[C@H](CC(=O)O)NC(=O)[C@H](Cc2c[nH]cn2)NC(=O)[C@H](Cc2ccc(O)cc2)NC1=O` [compound 28] ({CH2CO}-A[Cit][Ahp(2)]YHDEVL[Bip][Nle(6-Ph)]DC-NH2; thioether N-13), the Kd is 2.4 nM, the kon turned out to be 680000 M⁻¹ s⁻¹ and the koff is 0.0016 s⁻¹.
As for `CCCCC[C@@H]1NC(=O)C(Cc2cccc(NC(=N)N)c2)NC(=O)[C@H](C)NC(=O)CSC[C@@H](C(N)=O)NC(=O)[C@H](CC(=O)O)NC(=O)[C@H](CCCCC)NC(=O)[C@H](Cc2ccc(-c3ccccc3)cc2)NC(=O)[C@H](CC(C)C)NC(=O)[C@H](C(C)C)NC(=O)[C@H](CCC(=O)O)NC(=O)[C@H](CC(=O)O)NC(=O)[C@H](Cc2c[nH]cn2)NC(=O)[C@H](Cc2ccc(O)cc2)NC1=O` (stereo partly shown) [compound 29] ({CH2CO}-A[X2][Ahp(2)]YHDEVL[Bip][Ahp(2)]DC-NH2; thioether N-13; C-terminus assumed), the kon is 380000 M⁻¹ s⁻¹ and the koff was 0.00078 s⁻¹.

By Kd is commonly meant the constant that tells how readily two partners part at equilibrium.
